The values that follow are results of earlier work, collected in patent publication US20080026050A1, “SOLID DOSE FORMULATIONS OF A THROMBIN RECEPTOR ANTAGONIST” (priority 2006, published 2008).

The series addresses T1, thrombin receptor (Homo sapiens, UniProt P25116).
T1 sequence (P25116 22-425): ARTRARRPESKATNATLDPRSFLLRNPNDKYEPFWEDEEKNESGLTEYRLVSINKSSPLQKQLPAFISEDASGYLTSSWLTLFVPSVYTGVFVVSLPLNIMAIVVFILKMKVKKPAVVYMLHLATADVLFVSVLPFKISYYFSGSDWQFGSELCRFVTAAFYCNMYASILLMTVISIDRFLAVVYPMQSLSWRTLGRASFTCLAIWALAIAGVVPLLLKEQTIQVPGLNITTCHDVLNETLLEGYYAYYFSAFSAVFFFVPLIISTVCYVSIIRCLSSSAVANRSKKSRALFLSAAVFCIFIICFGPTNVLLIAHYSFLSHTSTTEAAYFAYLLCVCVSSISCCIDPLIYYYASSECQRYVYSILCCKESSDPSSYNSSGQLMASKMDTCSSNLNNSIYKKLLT
The note with it: general statement, refers to U.S. application Ser. No. 10/412,982.

Turning to `CCOC(=O)N[C@@H]1CC[C@@H]2[C@@H](C1)C[C@H]1C(=O)O[C@H](C)[C@H]1[C@H]2/C=C/c1ccc(-c2cccc(F)c2)cn1` [COMPOUND 1], the selectivity result is on record as “good” and the “thrombin receptor antagonist activity (potency)” value was “good”.
